# Source: patent publication US12128045B2, “Platinum-resistant cancer treatment” (BTG International Limited, priority 2017, dated 2024)
# Key:
# [1] = biological target: T1, folylpolyglutamate synthase (FPGS) (Homo sapiens, UniProt Q05932); conditions: cited from earlier work
# T1 sequence (Q05932 43-587): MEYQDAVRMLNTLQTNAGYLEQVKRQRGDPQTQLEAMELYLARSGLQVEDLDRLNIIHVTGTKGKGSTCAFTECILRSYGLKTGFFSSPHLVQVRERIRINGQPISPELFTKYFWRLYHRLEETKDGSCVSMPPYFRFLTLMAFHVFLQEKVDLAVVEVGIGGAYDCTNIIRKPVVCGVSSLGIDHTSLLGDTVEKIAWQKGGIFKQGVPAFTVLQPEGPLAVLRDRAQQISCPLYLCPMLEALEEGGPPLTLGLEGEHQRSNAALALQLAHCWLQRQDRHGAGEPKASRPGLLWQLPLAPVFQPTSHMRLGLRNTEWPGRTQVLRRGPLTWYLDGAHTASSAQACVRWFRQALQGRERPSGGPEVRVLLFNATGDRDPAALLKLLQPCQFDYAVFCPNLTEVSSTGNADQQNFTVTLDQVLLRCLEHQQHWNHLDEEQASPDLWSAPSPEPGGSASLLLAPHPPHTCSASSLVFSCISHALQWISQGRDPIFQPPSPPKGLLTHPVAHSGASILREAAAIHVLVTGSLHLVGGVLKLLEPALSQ
# [2] = in vivo; cited from earlier work
# [3] = test system: high grade serous ovarian cancer (HGSOC); assay: Phase I trial EudraCT3941 (Example 1): tumour response (RECIST partial responses); assay type: in vivo, human
# Text: (§1) Methods: A 3+3 dose escalation design was used and two IV schedules were explored. Schedule A, weekly dosing (QW) and schedule B, once every 2 weeks dosing (Q2W). A cycle consisted of 4 weeks and treatment was stopped after 6 cycles in both schedules. An expansion cohort to evaluate clinical activity in patients with FR-α overexpressing high grade serous ovarian cancer (HGSOC) was initiated.
# [4] = Phase I trial EudraCT3941 (Example 1): pharmacokinetics; assay type: in vivo, human
# Text: as §1
# [5] = test system: reduced folate carrier (RFC); conditions: except at high concentrations; Gibbs et al., 2005; cited from earlier work
# [6] = biological target: alpha-folate receptor (FR-α) (Homo sapiens, UniProt P15328); conditions: relative to folic acid; Theti et al., 2003; cited from earlier work
# [7] = Half life on administration to man; conditions: in vivo
# [8] = Phase I trial EudraCT3941 (Example 1): safety and toxicity; assay type: in vivo, human
# Text: as §1
# [9] = biological target: thymidylate synthase (TS); conditions: read-out: Ki against isolated target thymidine synthase; cited from earlier work
# thymidylate synthase = biological target: T2, thymidylate synthase (Homo sapiens, UniProt P04818); assay: FLT PET imaging of thymidylate synthase inhibition in trial patients; conditions: in vivo
# T2 construct: from tissue; host or cells: tumour tissue of trial patients, in vivo
# Text: 3827-3834. 2008 (Pillai et al).
# [10] = test system: tumour cell proliferation; assay: Inhibition of tumour cell proliferation in vitro; assay type: cell-based
# [11] = in vivo; cited from earlier work; remark: listed apart in the source
# [12] = test system: platinum resistant epithelial ovarian cancer; conditions: 6 mg/kg every three weeks, cited from earlier work
# [13] = test system: platinum-sensitive epithelial ovarian cancer; conditions: 1,100 patient Phase III, with paclitaxel and carboplatin; cited from earlier work
# [14] = expansion cohort, archival samples analysed
# Chain of alpha-folate receptor (FR-α) (P15328 25-234, species assumed): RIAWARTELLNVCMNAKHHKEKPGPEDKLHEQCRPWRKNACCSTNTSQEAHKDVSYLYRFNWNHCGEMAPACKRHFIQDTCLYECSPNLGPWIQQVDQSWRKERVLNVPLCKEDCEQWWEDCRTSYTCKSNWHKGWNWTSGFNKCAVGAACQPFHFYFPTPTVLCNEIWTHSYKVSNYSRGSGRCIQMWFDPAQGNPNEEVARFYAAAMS
# T2 sequence (P04818 2-313 limits assumed): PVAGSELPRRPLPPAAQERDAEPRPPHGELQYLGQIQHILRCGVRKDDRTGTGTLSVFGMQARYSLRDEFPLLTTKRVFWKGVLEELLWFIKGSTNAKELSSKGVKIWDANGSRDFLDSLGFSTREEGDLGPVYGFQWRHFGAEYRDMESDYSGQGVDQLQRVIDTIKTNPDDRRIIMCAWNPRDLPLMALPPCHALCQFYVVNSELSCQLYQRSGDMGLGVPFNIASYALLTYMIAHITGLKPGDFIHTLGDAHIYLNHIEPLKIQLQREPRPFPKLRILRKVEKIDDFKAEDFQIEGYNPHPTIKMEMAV
molecule,measurement,setting,value
Nc1nc2[nH]cc(CCc3ccc(C(=O)N[C@@H](CCC(=O)O)C(=O)O)cc3)c2c(=O)[nH]1 [pemetrexed],substrate for FPGS,[1],excellent substrates
same,half-life in plasma,[2],fairly short
"C#CCN(c1ccc(C(=O)N[C@@H](CCC(=O)N[C@H](CCC(=O)O)C(=O)O)C(=O)O)cc1)[C@H]1CCc2cc3nc(CO)[nH]c(=O)c3cc21 [BTG945, N—{N-{4-[N-((6S)-2-Hydroxymethyl-4-oxo-3,4,7,8-tetrahydro-6H-cyclo-penta[g]quinazolin-6-yl)-N-(prop-2-ynyl)amino]benzoyl}-L-γ-glutamyl}-D-glutamic acid]",patients with HGSOC with partial responses (PRs),[3]; dose escalation cohort,5 patients
same,patients with PRs,"[3]; expansion cohort, HGSOC, 12 mg/m^2 Q2W",5/11
same,AFR+ve patients with PR,[3]; [14],4/4
same,AFR−ve patients who did not have a PR,[3]; [14],4/4
same,substrate for FPGS,[1],not a substrate
same,period for which concentrations above 0.5 μM were achieved,[4]; doses above 6 mg/m^2,72 h
same,period for which concentrations between 0.05-1 μM were achieved,[4]; doses of 4 mg/m^2 and above,48 h
same,AUC,"[4]; human, in vivo, iv, 12 mg/m2",85200 ng·h/mL
same,Cmax,"[4]; human, in vivo, iv, 12 mg/m2",4950 ng/mL
same,half-life,"[4]; human, in vivo, iv, 12 mg/m2",26 h
same,affinity for reduced folate carrier (RFC),[5],negligible affinity
same,affinity for α-FR as % of folic acid (FA),[6],70%
same,half life levels on administration to man,[7],unusually long
same,"grade 3-4 diarrhea, mucositis or neutropenia","[8]; human, in vivo, 24 weeks","No grade 3-4 diarrhea, mucositis or neutropenia"
same,incidence of dysgeusia,"[8]; human, in vivo, 24 weeks",12%
same,incidence of fatigue,"[8]; human, in vivo, 24 weeks",36%
same,incidence of nausea,"[8]; human, in vivo, 24 weeks",21%
same,cases of suspected drug-related drop in Dlco,[8]; in vivo,No cases
same,"conventional toxicities of cytotoxic chemotherapy (myelotoxicity, nephrotoxicity, neurotoxicity)",[8]; in vivo,not observed
same,dose limiting effects other than BOOP,[8]; in vivo,not seen
same,occurrence of treatment limiting BOOP,[8]; in vivo,without occurrence
same,"side effects associated with α-folate receptor antibody conjugates (diarrhoea, blurred vision, nausea)",[8]; in vivo,not observed
same,"side effects normally associated with thymidine synthase inhibitors (neutropenia, diarrhoea, hair loss)",[8]; in vivo,not observed
same,dose limiting toxicity,"[8]; schedule A, weekly IV dosing (QW), 1-6 mg/m^2",G3 cellulitis
same,dose limiting toxicity,"[8]; schedule B, IV once every 2 weeks (Q2W), 2-12 mg/m^2",no dose limiting toxicity
same,Ki,[9],1.2 nM
same,thymidylate synthase inhibition by FLT PET imaging,thymidylate synthase,Evidence of thymidylate synthase inhibition
same,inhibition of tumour cell proliferation in vitro,[10],concentration and time-dependent inhibition
same,dose at which toxicity occurred (incidence of BOOP),[11],45 mg/m^2
"IMGN853: Antibody-drug conjugate, FR-α targeted",share of patients with three or less prior lines of therapy showing this outcome,[12],39%
same,PFS,[12]; patients with three or less prior lines of therapy,6.7 months
"Cc1nc2ccc(CN(C)c3ccc(C(=O)N[C@@H](CCC(=O)O)C(=O)O)s3)cc2c(=O)[nH]1 [Raltitrexed, raltitrexed]",substrate for FPGS,[1],excellent substrates
same,half-life in plasma,[2],fairly short
"C#CCN(Cc1cc2c(=O)[nH]c(C)nc2cc1C)c1ccc(C(=O)N[C@@H](CCc2nnn[nH]2)C(=O)O)c(F)c1 [Plevitrexed, plevitrexed]",substrate for FPGS,[1],not a substrate
same,half-life in plasma,[2],long
Farletuzumab: FR-α targeted monoclonal antibody,progression free survival (PFS),[13],failed to improve progression free survival
